Laboratory results taken from PubChem BioAssay AID2202554 (NIEHS Division of Translational Toxicology (DTT)).
Records with an inconclusive call do not appear. Active and inactive are the calls of the source. How the calls were made is not given here. Residues, ends and D or L forms follow the SMILES beside them.

What follows are compounds tested on S. typhimurium/E. coli reverse mutation, colony counts (assay: Bacterial reverse mutation test (aka Ames test) summary data;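 further: His-minus Salmonella and trp-minus E. coli WP2 uvrA pKM101 with or without liver S9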).
Text: The Ames test uses bacteria cultures to determine whether a substance causes mutations. Because there is a significant overlap between substances that are mutagens and those that are carcinogens, a quick and inexpensive mutagenicity test is useful as an initial screening for possible carcinogens.
The Ames test relies on specific strains of S. typhimurium, namely: TA97, TA98, TA100, TA102, TA104, TA1535, TA1537, and TA1538. In addition to the S. typhimurium strains, the test may also use the E. coli strain WP2 uvrA pKM101.
Each of the bacterial strains has a mutation that prevents it from making an amino acid (a protein building block) required for normal cell growth. The S. typhimurium strains are unable to manufacture histidine; the E. coli strain cannot manufacture tryptophan. The tester strains will not be able to grow without amino acid supplementation, unless the mutated gene is changed back to the correct DNA sequence (reversion mutation). Being exposed to a mutagenic chemical increases the chance that the mutant gene will be restored to the correct sequence, which allows the bacteria to grow and form colonies. Each substance under study is tested in a variety of bacterial strains with different types of altered DNA sequences in order to provide a comprehensive assessment of the mutagenic potential of the substance.
Some non-mutagenic substances are converted to mutagenic substances when metabolized by the liver; in contrast, some substances that are mutagenic in their natural state are converted to non-mutagens by the liver. All substances are tested in their natural state, as well as in the presence of liver enzymes that can produce this metabolic conversion of the test substance. Extracts of rat, hamster, or mouse liver enzymes (S9 mix) are used for this purpose.
D. Preparing the Cultures
Multiple sets of cultures are prepared using a range of doses and different amounts of liver enzymes for each bacterial strain. Each culture is prepared in a test tube containing a suspension of one bacterial strain and either an S9 mix or plain buffer solution. Then the test substance is added. Negative control cultures are established using the same ingredients, but without the test substance. Positive control cultures are established using known mutagens active in particular bacterial strains and metabolic conditions (for example, with or without S9). Once prepared, each culture is incubated for 20 minutes at 37° C. Agar is then added to the cultures, and the contents of each tube are poured onto the surface of a Petri dish that was prepared with standard bacterial culture medium. The plates are then incubated, usually for two days.
Depending on the substance to be tested, the exposure and incubation processes may be modified. These variations include:
- Elimination of the 20-minute incubation period in a test tube prior to plating (this method is referred to as the standard plate incorporation method)
- Enzymatic reduction of azo and diazo substances (this process occurs in the intestine or liver of animals) using a chemical called flavin mononucleotide (FMN) or intestinal bacterial preparations from rats
- Testing in sealed chambers such as desiccators for volatile and gaseous chemicals.
To validate the test, a trained investigator compares the number of colonies on the chemical-treated plates to the number of colonies on the negative control plates. If the substance under test is mutagenic, the chemical-treated plates will have a much greater number of colonies than the negative control plates.
- A positive response is a reproducible, dose-related increase in mutant colonies in any single strain, with or without the addition of S9 metabolic enzymes. While there is no minimum percentage of increase required for a result to be considered positive, a twofold increase in mutant colonies in a treated plate is usually considered to be a positive (mutagenic) response.
[…]
In the case of `[N-]=[N+]=[N-]`, the outcome is reported as “active; positive”.
For `OCC1CCC(CO)CC1` (stereo unspecified), the outcome was “inactive; negative”.
For `S=C(NC1CCCCC1)NC1CCCCC1`, the outcome was “inactive; negative”.
With `O=[N+]([O-])c1c(Cl)cc(Cl)cc1Cl` the outcome was “inactive; negative”.
For `Nc1ccccn1`, the outcome was “inactive; negative”.
With `O=C1CCCCC1` the outcome was “inactive; negative”.
In the case of `Nc1c2c(nc3ccccc13)CCCC2`, the outcome is reported as “active; positive”.
For `Oc1ccc(C(c2ccc(O)cc2)(C(F)(F)F)C(F)(F)F)cc1`, the outcome was “inactive; negative”.
For `O=c1oc2c(O)c(O)cc3c(=O)oc4c(O)c(O)cc1c4c23`, the outcome was “inactive; negative”.
For `Nc1ccccc1O`, the outcome was “active; positive”.
`FC(F)(F)c1ccc(Cl)cc1` was tested, and the outcome was “inactive; negative”.
With `CCCCCC=CC=CC=O` the outcome was “inactive; negative”.
`NC1CCCCC1` was tested, and the outcome was “inactive; negative”.
In the case of `CCc1ccc(C(c2ccc(CC)cc2)C(Cl)Cl)cc1`, the outcome is reported as “active; positive”.
With `O=C1CCc2ccccc2O1` the outcome was “inactive; negative”.
In the case of `O=C(O)CS`, the outcome is reported as “inactive; negative”.
In the case of `N#Cc1ccccc1`, the outcome is reported as “inactive; negative”.
For `Cc1cccc(Br)c1`, the outcome was “inactive; negative”.
In the case of `FC(Cl)(Cl)C(F)(Cl)Cl`, the outcome is reported as “active; weakly positive”.
For `Cc1c(N)cccc1[N+](=O)[O-]`, the outcome was “active; positive”.
With `Cc1ccc(Br)cc1` the outcome was “inactive; negative”.
In the case of `CC(C)CCC(C)Nc1ccc(NC(C)CCC(C)C)cc1` (stereo unspecified), the outcome is reported as “inactive; negative”.
`Cc1ccc(C)cc1` was tested, and the outcome was “inactive; negative”.
In the case of `O=C(O)COc1ccccc1`, the outcome is reported as “inactive; negative”.
In the case of `ClCCOCCCl`, the outcome is reported as “active; weakly positive”.
`CCCCC(CC)COC(=O)C(C#N)=C(c1ccccc1)c1ccccc1` (stereo unspecified) was tested, and the outcome was “inactive; negative”.
For `Nc1ccc(S(=O)(=O)c2ccc(N)cc2)cc1`, the outcome was “inactive; negative”.
In the case of `C=CBr`, the outcome is reported as “active; positive”.
For `CCn1c2ccccc2c2cc(N)ccc21`, the outcome was “active; positive”.
`CC(Cl)CCl` (stereo unspecified) was tested, and the outcome was “active; weakly positive”.
In the case of `CCOC(=O)c1ccccc1C(=O)OCC`, the outcome is reported as “inactive; negative”.
In the case of `NCC(=O)O`, the outcome is reported as “inactive; negative”.
In the case of `C=CC(=O)OCC1CO1` (stereo unspecified), the outcome is reported as “active; positive”.
`S=C=Nc1cccc2ccccc12` was tested, and the outcome was “active; positive”.
For `O=C(NCNC(=O)NC1C(=O)NC(=O)N1CO)NC1C(=O)NC(=O)N1CO` (stereo unspecified), the outcome was “active; positive”.
With `O=C(O)/C=C/C(=O)O` the outcome was “inactive; negative”.
`C[C@@H]1C[C@@H]([C@H](O)CC2CC(=O)NC(=O)C2)C(=O)[C@@H](C)C1` was tested, and the outcome was “inactive; negative”.
For `C=CCN=C=S`, the outcome was “active; weakly positive”.
For `COCOC`, the outcome was “inactive; negative”.
With `O=Nc1ccc(NO)cc1` the outcome was “active; positive”.
`O=C(O)/C=C\C(=O)O` was tested, and the outcome was “inactive; negative”.
With `ClC=CCl` the outcome was “inactive; negative”.
With `COC(=O)[C@H](Cc1ccccc1)NC(=O)[C@@H](N)CC(=O)O` (H-Asp-Phe-OMe) the outcome was “inactive; negative”.
`CC(CCl)OP(=O)(OC(C)CCl)OC(C)CCl` (stereo unspecified) was tested, and the outcome was “inactive; negative”.
`CCOc1ccc(NC(N)=O)cc1` was tested, and the outcome was “inactive; negative”.
In the case of `Cc1cc(C(C)(C)C)c(O)c(C(C)(C)C)c1`, the outcome is reported as “inactive; negative”.
With `CCCCCCCCCCCCCl` the outcome was “inactive; negative”.
In the case of `N#CCc1ccccc1[N+](=O)[O-]`, the outcome is reported as “active; positive”.
In the case of `ClC1=C(Cl)[C@]2(Cl)[C@@H]3[C@@H]4C[C@@H]([C@H]5O[C@@H]45)[C@@H]3[C@@]1(Cl)C2(Cl)Cl`, the outcome is reported as “inactive; negative”.
`Oc1cc(Cl)ccc1Cl` was tested, and the outcome was “inactive; negative”.
For `C=C[C@H]1CN2CC[C@H]1C[C@@H]2[C@@H](O)c1ccnc2ccc(OC)cc12`, the outcome was “inactive; negative”.
`Cc1c(N)cccc1Cl` was tested, and the outcome was “inactive; negative”.
With `O=NN1CCOCC1` the outcome was “active; positive”.
With `CN(C)C(=S)[S-].CN(C)C(=S)[S-].[Pb+2]` the outcome was “active; positive”.
For `O=C(Cc1ccccc1)OCc1ccccc1`, the outcome was “inactive; negative”.
`Cn1cnc([N+](=O)[O-])c1Sc1ncnc2nc[nH]c12` was tested, and the outcome was “active; positive”.
`CCCCC(=O)N(C)C` was tested, and the outcome was “inactive; negative”.
For `COc1cccc(N)c1`, the outcome was “active; positive”.
`CC(=O)C(N=Nc1ccc(-c2ccc(N=NC(C(C)=O)C(=O)Nc3ccccc3)c(Cl)c2)cc1Cl)C(=O)Nc1ccccc1` (stereo unspecified) was tested, and the outcome was “inactive; negative”.
For `CCN(CC)c1ccc([N+](=O)[O-])cc1`, the outcome was “active; positive”.
In the case of `CCBr`, the outcome is reported as “active; positive”.
With `C=COC(C)=O` the outcome was “inactive; negative”.
In the case of `O=c1ccc(=O)[nH][nH]1`, the outcome is reported as “inactive; negative”.
In the case of `CCOC(=O)CC(SP(=O)(OC)OC)C(=O)OCC` (stereo unspecified), the outcome is reported as “inactive; negative”.
For `CC(C)=CCCC(C)=CC=O`, the outcome was “inactive; negative”.
For `CC(=O)C(C)=O`, the outcome was “active; positive”.
With `c1ccc2cc(Nc3ccc(Nc4ccc5ccccc5c4)cc3)ccc2c1` the outcome was “active; positive”.
For `C=CC`, the outcome was “active; positive”.
For `CC(C)Br`, the outcome was “active; positive”.
With `ClC=CCCl` the outcome was “active; positive”.
`COP(=O)(O)OC` was tested, and the outcome was “inactive; negative”.
`COc1ccc(C=O)cc1OC` was tested, and the outcome was “inactive; negative”.
`CCCC[N+]1(C)CCCC1` was tested, and the outcome was “inactive; negative”.
For `[Li+]`, the outcome was “inactive; negative”.
In the case of `O=C(Nc1ccccc1)c1cc2ccccc2c(N=Nc2cc(Cl)ccc2Cl)c1O`, the outcome is reported as “active; weakly positive”.
`CCN(CC)c1ccccc1` was tested, and the outcome was “inactive; negative”.
For `NC(=O)c1ccccc1C(N)=O`, the outcome was “inactive; negative”.
In the case of `Cc1cc(O)c2c(c1)C(=O)c1cc(O)cc(O)c1C2=O`, the outcome is reported as “active; positive”.
With `O=C1O[C@H]([C@H](O)CO)C(O)=C1O` the outcome was “active; weakly positive”.
In the case of `C=C(C)OC(C)=O`, the outcome is reported as “inactive; negative”.
`Oc1cccc(O)c1O` was tested, and the outcome was “active; positive”.
In the case of `NC1(C(=O)O)CCCC1`, the outcome is reported as “inactive; negative”.
In the case of `COC(=O)[C@H]1[C@H]2C[C@@H]3c4[nH]c5cc(OC)ccc5c4CCN3C[C@H]2C[C@@H](OC(=O)c2cc(OC)c(OC)c(OC)c2)[C@@H]1OC`, the outcome is reported as “inactive; negative”.
`COc1cc(-c2ccc(N)c(OC)c2)ccc1N` was tested, and the outcome was “active; positive”.
With `CCCCCN` the outcome was “inactive; negative”.
For `Cc1ccc2c(c1N)C(=O)c1ccccc1C2=O`, the outcome was “active; positive”.
`CNC(=O)ON=CC(C)(C)SC` was tested, and the outcome was “inactive; negative”.
`C[C@H](Cn1cnc2c(N)ncnc21)OCP(=O)(O)O` was tested, and the outcome was “active; positive”.
For `CN[C@@H]1[C@H](O[C@H]2[C@H](O[C@H]3[C@H](O)[C@@H](O)[C@H](NC(=N)N)[C@@H](O)[C@@H]3N=C(N)N)O[C@@H](C)[C@]2(O)C=O)O[C@@H](CO)[C@H](O)[C@H]1O`, the outcome was “active; weakly positive”.
`C=CC(=O)OCC(CO)(COC(=O)C=C)COC(=O)C=C` was tested, and the outcome was “inactive; negative”.
For `CC(COc1ccccc1)N(CCCl)Cc1ccccc1` (stereo unspecified), the outcome was “active; positive”.
With `NC(=O)c1ccccc1[N+](=O)[O-]` the outcome was “active; positive”.
For `FC(F)(F)c1cccc(Cl)c1`, the outcome was “inactive; negative”.
With `CC1CC(OC(=O)c2ccccc2O)CC(C)(C)C1` (stereo unspecified) the outcome was “inactive; negative”.
In the case of `O=C(c1ccccc1)C(O)c1ccccc1` (stereo unspecified), the outcome is reported as “active; weakly positive”.
With `Nc1nc(-c2ccccc2)cs1` the outcome was “active; positive”.
In the case of `O=C1C=CC(=O)C=C1`, the outcome is reported as “inactive; negative”.
With `Oc1c(Br)c(Br)c(Br)c(Br)c1Br` the outcome was “inactive; negative”.
In the case of `C[C@H]1CCCC(=O)CCC/C=C/c2cc(O)cc(O)c2C(=O)O1`, the outcome is reported as “inactive; negative”.
For `Clc1ccccc1Cl`, the outcome was “inactive; negative”.
With `CC(C)=O` the outcome was “inactive; negative”.
In the case of `Nc1cc(Cl)ccc1Cl`, the outcome is reported as “inactive; negative”.
With `BrC(Br)C(Br)(Br)Br` the outcome was “inactive; negative”.
For `Cc1cscn1`, the outcome was “inactive; negative”.
`O=C(/C=C/C=C/c1ccc2c(c1)OCO2)N1CCCCC1` was tested, and the outcome was “inactive; negative”.
`Clc1cccc(Cl)c1` was tested, and the outcome was “inactive; negative”.
